# Source: patent US9084770B2, “Modulation of insulin like growth factor I receptor expression in cancer” (Antisense Therapeutics, Ltd., priority 2008, dated 2015)
# Experiments:
# IGF-IR mRNA [1] = assay: IGF-IR mRNA in PC3 Ptx-R cells; assay type: cell-based, human; conditions: 10 to 200 nM, compared to oligofectamine transfection reagent
# Source text: (§1) The PC3 Ptx-R cells retain sensitivity to ATL1101-induced IGF-IR down regulation at the mRNA and protein level as shown in FIGS. 11A-C. […] ATL1101 and the control oligodeoxynucleotide ISIS 306064 had no effect on either of the alternative spliced isoform transcripts of the insulin receptor, IR-A, IR-B or IR-β protein or vinculin protein levels.
# LNCaP cells [2] = assay: LNCaP cell viability, crystal violet assay; assay type: cell-based, human; conditions: three days after treatment
# Description: (§2) Established methods were used to test the activity of IGF-IR antisense oligonucleotide on LNCaP and PC-3 cell growth (crystal violet assay) and apoptosis (FACS). Dose- and sequence-specific suppression of IGF-IR mRNA and protein expression in ATL1101-treated LNCaP and PC3 PC cell lines in vitro were observed by QT-PCR and western blotting. Effects of the IGF-IR antisense oligonucleotide on various putative targets, including IGF-IR and downstream targets were evaluated using western blotting.
# (§3) Cells were transfected with indicated concentrations of ATL1101, control oligodeoxynucleotides or oligofectamine as in FIGS. 1A(i)-1A(ii). Three days after treatment, cell viability was determined by crystal violet assay. Viable cell density was normalized to that of cells treated with oligofectamine. Points, means of triplicate analysis; bars, SE. *, p<0.05 differs from control oligodeoxynucleotide treatment group. **, p<0.01 differs from control oligodeoxynucleotide treatment group by Student's t test.
# IGF-IRβ subunit protein = IGF-IRβ subunit protein in PC3 Ptx-R cells; assay type: cell-based, human; conditions: 10 to 200 nM, compared to oligofectamine transfection reagent
# Source text: as §1
# [3] = system: insulin receptor IR-A, IR-B, IR-β protein; assay: Insulin receptor transcripts and protein in PC3 Ptx-R cells; assay type: cell-based, human
# Source text: as §1
# PC3 tumors = assay: PC-3 xenograft with Paclitaxel, mean tumor volume; assay type: in vivo, mice; conditions: 15 mg/kg i.p. oligonucleotide plus Paclitaxel
# Source text: In vivo treatments in a PC-3 xenograft model were done substantially as described by Zellweger et al., 2001. PC3 cells (2×10^6 cells) were xenografted by subcutaneous injection into recipient 6-8 week-old athymic nude (nu/nu) mice. When tumors reached 200 mm^3, mice were randomly assigned to one of two arms for treatment with 2′-MOE-modified IGF-IR antisense oligonucleotide (ATL1101) plus Paclitaxel, or mismatch control oligodeoxynucleotide ISIS 306064 plus Paclitaxel. Each experimental group consisted of 10 mice. After randomization, 15 mg/kg of ATL1101 antisense oligonucleotide or mismatch control oligonucleotide were injected intraperitoneal (i.p.) into each mouse once daily for the first 5 days and 3 times a week (every other day) thereafter for 7 weeks. On days 7, 9, 11, and on days 21, 23, and 25, 0.5 mg of polymeric micellar Paclitaxel was administered once daily by i.v. injection. Mean Tumor volume was measured once weekly for 8 weeks and calculated by the formula length×width×depth×0.5236.
# In PC3 mice, after 5 weeks of treatment, mean tumor size in mice treated with Paclitaxel and mismatch control oligodeoxynucleotide was 326+/−40.9 mm^3 compared with 175+/−20.1 mm^3 in mice treated with Paclitaxel and ATL1101, or 53.7% of control (p<0.01). After 8 weeks of treatment, mean tumor size in mice treated with Paclitaxel and mismatch control oligodeoxynucleotide was 1417+/−222 mm^3 compared with 507+/−79.3 mm^3 in mice treated with Paclitaxel and ATL1101, or 35.8% of control (p<0.01).
# LNCaP cells [4] = assay: LNCaP cell cycle and apoptosis, flow cytometry with propidium iodide; assay type: cell-based, human; conditions: 100 nM
# Description: as §2
# (§4) The Effect of IGF-IR silencing with IGF-IR antisense oligonucleotide (ATL1101) on LNCaP and PC3 cell apoptosis and cell cycle is shown in FIGS. 4A(i)-(ii), 4B, 4C(i)-(ii), and Table 2. Cells were transfected with indicated concentrations of ATL1101, control oligodeoxynucleotide or oligofectamine as in FIGS. 1A(i)-1B(ii). Two days after treatment, cell cycle analysis was determined by flow cytometry using propidium iodide staining. […] In FIGS. 4C(i)-(ii), LNCaP (FIG. 4C (i)) or PC-3 (FIG. 4C (ii)) cells were transfected with indicated concentration of ATL1101 or control oligodeoxynucleotide (ISIS 306064) for two days. Cells were then cultured in FBS media for one day and in serum-free media for one day. Whole cell lysates (30 μg) were subjected to SDS-PAGE and immunoblotted to assess Cyclin D1, Cyclin E, p-RB, total Rb, and p27 protein levels. Oligo, oligofectamine treated cells only.
# [5] = system: IGF-IRβ, p-AKT, p-ERK1/2, cleaved PARP; assay: Intracellular signaling in LNCaP and PC3 cells, immunoblot; assay type: cell-based, human; conditions: 100 nM
# Description: The suppression of intracellular signaling in IGF-IR antisense oligonucleotide-treated LNCaP (FIG. 3A) and PC3 (FIG. 3B) in vitro is shown in FIGS. 3A-3B. LNCaP or PC3 cells were transfected with 100 nM ATL1101 or control oligodeoxynucleotide (ISIS 306064) for two days. Cells were then cultured in FBS media for one day and in serum-free media for one day. Whole cell lysates (30 μg) were subjected to SDS-PAGE and immunoblotted to assess IGF-IRβ, p-AKT, total AKT, p-ERK1/2, total ERK1/2, cleaved PARP, and vinculin protein levels. Oligo, oligofectamine treated cells only.
# IGF-IR mRNA [6] = assay: IGF-IR mRNA expression in transfected LNCaP and PC-3 cells, quantitative RT-PCR; assay type: cell-based, human; conditions: LNCaP and PC-3 cells, maximal doses tested
# Description: as §2
# FIGS. 1A(i)-1A(ii) show the sequence-specific and dose-dependent suppression of IGF-IR mRNA expression levels by ATL1101 in LNCaP (FIG. 1A (i)) and PC-3 (FIG. 1A (ii)) cells. […] One day after treatment, total RNA was extracted, and IGF-IR mRNA expression was analyzed by quantitative RT-PCR. IGF-IR mRNA levels were normalized to levels of GAPDH mRNA and expressed here as mean±SE. ***, p<0.001 differ from control (oligofectamine only) by Student's t test. “Control” cells were treated with oligofectamine only. In LNCaP cells, IGF-IR expression was >70% suppressed by 10 nM ATL1101 and >90% at 200 nM ATL1101. In PC3 cells, IGF-IR expression was suppressed ˜40% at 10 nM ATL1101, >50% at 50 nM ATL1101 and ˜80% at 200 nM. Control oligodeoxynucleotide (ISIS 306064) did suppress IGF-IR mRNA expression but by less than 25% at maximal doses tested
# PC3 cells [7] = assay: PC3 cell cycle and apoptosis, flow cytometry with propidium iodide; assay type: cell-based, human; conditions: PC3, FBS condition, 200 nM
# Description: as §2, §4
# Ptx-R PC3 cells = assay: Ptx-R PC3 viable cells after transfection with or without Paclitaxel; assay type: cell-based, human; conditions: 100 nM Paclitaxel and 25 nM oligonucleotide
# Description: The number of viable PC3 and PtxR PC3 cells was determined 72 hours after the second transfection.
# […] The number of viable cells remaining was determined 72 hours after the second transfection treatment. ATL1101 treatment enhances the Ptx-R sensitivity to Paclitaxel under standard culture conditions. For example, there was approximately 45% cell viability with 100 nM Paclitaxel and 25 nM control oligodeoxynucleotide whereas, only 25 nM Paclitaxel is needed in the presence of 25 nM ATL1101 to produce the same reduction in cell viability.
# PC3 cells [8] = assay: PC3 cell viability, crystal violet assay; assay type: cell-based, human; conditions: three days after treatment
# Description: as §2, §3
substance,measurement,setting,value
ISIS 306064: 8 nucleotide mismatch control oligonucleotide; Negative Control ODN (CCAATGATAACAAACGCGGA; chemistry not given here) [reference compound],IGF-IR mRNA levels,IGF-IR mRNA [1],no effect
same,cytotoxic effect on cell viability,LNCaP cells [2],dose-dependent cytotoxic effect
same,IGF-IRβ subunit protein levels,IGF-IRβ subunit protein,no effect
same,"insulin receptor IR-A, IR-B transcripts or IR-β protein levels",[3],no effect
same,mean tumor size,PC3 tumors; after 5 weeks of treatment,326+/−40.9 mm^3
same,mean tumor size,PC3 tumors; after 8 weeks of treatment,1417+/−222 mm^3
same,"% of total cells, G0/G1",LNCaP cells [4]; CSS condition,70.1%
same,"% of total cells, G2/M",LNCaP cells [4]; CSS condition,4.4%
same,"% of total cells, S",LNCaP cells [4]; CSS condition,3.8%
same,"% of total cells, Sub G0/G1",LNCaP cells [4]; CSS condition,21.7%
same,subG0/G1 + G0/G1:S + G2/M,LNCaP cells [4]; CSS condition,11.2
same,"% of total cells, G0/G1",LNCaP cells [4]; FBS condition,65.4%
same,"% of total cells, G2/M",LNCaP cells [4]; FBS condition,12.6%
same,"% of total cells, S",LNCaP cells [4]; FBS condition,11.2%
same,subG0/G1 + G0/G1:S + G2/M,LNCaP cells [4]; FBS condition,3.2
same,"% of total cells, Sub G0/G1","LNCaP cells [4]; FBS condition, two days after treatment",10.8%
same,"IGF-IR expression, down-stream kinase signaling and induction of PARP cleavage versus oligofectamine-treated cells",[5],indistinguishable
same,suppression of IGF-IR mRNA expression,IGF-IR mRNA [6],less than 25%
same,"% of total cells, G0/G1",PC3 cells [7],58.5%
same,"% of total cells, G2/M",PC3 cells [7],18.2%
same,"% of total cells, S",PC3 cells [7],13.7%
same,"% of total cells, Sub G0/G1",PC3 cells [7],9.6%
same,subG0/G1 + G0/G1:S + G2/M,PC3 cells [7],2.1
same,cell viability,Ptx-R PC3 cells,approximately 45%
same,cytotoxic effect on cell viability,PC3 cells [8],dose-dependent cytotoxic effect
